Entries after “also recorded” stand apart in the source; their conditions may differ. Where two headings read alike, the source gives them in different places.
What was measured:
[1] = test system: muscarinic (CHRM1); design: method as in PMID 34817776; details: cited from earlier work
[2] = test system: T-cell receptors; design: method as in PubChem bioassay 504894; details: ref PubChem bioassay 504894; cited from earlier work
[3] = test system: articular joints affected by RA; assay: Histopathology (H & E) of arthritic joint, CIA mice; assay type: in vivo, C57 BL/6 mice
Procedure: The sample size for therapeutic evaluation was calculated using power analysis based on experimental data from similar studies. In a two-sided test and setting the α value at 0.05 and desired power at 0.95, the sample size turned out to be 5 per group. We also expected deaths during the experiments; therefore, we used the formula Nt = N/1-q, where Nt is the number of mice initially used, N is the number required at the end of the study, and q is the proportion of attrition, which is generally 10%. Thus, at the end of the study period, we expected to have data from at least […] per group, which is enough to attain statistical significance if it exists. Data were analyzed using a one-way ANOVA followed by Dunnett’s test compared with the vehicle control. At the end of the study, the mice were anesthetized and sacrificed using CO2 euthanasia. The hind paws of the mice were subjected to a histopathological examination, and the serum was analyzed for CRP, TNF-α, IL-6, and IL-10, as described in the below sections. Histology. Limbs from euthanized animals were preserved in buffered formalin, decalcified, embedded, sectioned, and stained with hematoxylin and eosin (H & E). Microscopic images were acquired using the Lx 400 microscope (Labomed, Fremont, CA, USA).

[4] = test system: adrenergic (ADRB2); design: method as in PMID 34817776; details: cited from earlier work
[5] = test system: caspase 8; design: method as in PubChem database; details: ref PubChem database; cited from earlier work
[6] = Pharmacokinetics in plasma and synovial fluid after oral gavage; assay type: in vivo, Sprague Dawley male rats; details: rat; for Cmax / AUC(0-inf) / AUC(0-t) / Tmax: male, Sprague Dawley; for Cmax: po, 10 mg/kg
Procedure: Pharmacokinetics of CID 3117694 in Sprague Dawley male rats. The CID 3117694 structure was confirmed using H1 NMR (Figure S1), and it was determined to be >95% pure via HPLC (Figure S2). To determine if CID 3117694 can be used in in vivo RA efficacy model studies, we conducted an in vivo pharmacokinetic (PK) study. CID 3117694 was formulated in 10% DMSO, 40% PEG400, 30% PG, and 20% H2O at 2 mg/mL and administered via oral gavage to Sprague Dawley male rats at 10 mg/kg. Blood and synovial fluid were collected at 15 min, 30 min, 1, 2, 4, 8, and 24 h and quantitated using LC/MS. PK parameters were calculated using WinNonLin 8.3.4 software.
Pharmacokinetics of CID 3117694. All animal studies were conducted in accordance with NSU IACUC guidelines. Study protocol #2021.04.DM2 was approved using NSU IACUC before the commencement of the studies. CID 3117694 was formulated in 10% DMSO, 40% PEG400, 30% PG, and 20% H2O at 2 mg/mL and administered via an intragastric (ig) gavage to six Sprague Dawley male rats at 10 mg/kg. The animals were anesthetized using isoflurane. Blood and synovial fluid were collected at 15 min, 30 min, 1 h, 2 h, 4 h, 8 h, and 24 h after the administration of CID 3117694. Synovial fluid (SF) was collected using a 23-gauge needle connected to a mini peristaltic pump via perfusion tubing. Sterile saline was infused at a constant rate of 100 μL/min^−1. After the infusion of 100 μL of the vehicle (sterile saline), the outflow tubing was connected to the 25-gauge needle to minimize pressure build-up within the joint space. The fluid was infused and withdrawn at a constant rate until a 250 μL basal sample was collected in a 1.5 mL centrifuge tube. Samples were immediately frozen at −20 °C. Blood was collected using a 25 G needle directly from the heart. The samples were prepared for LC-MS/MS analysis using the acetonitrile protein precipitation technique. Briefly, blank plasma and subject samples (plasma and SF samples) were retrieved from the deep freezer and allowed to thaw. The calibration curve standards (10 to 10,000 μg/mL of CID 3117694) and quality control samples were prepared using blank plasma. The thawed samples were vortexed to ensure the complete mixing of the contents. A total of 50 µL of each sample was transferred to the vials, and 200 µL of an Internal Standard (IS, telmisartan) mixed with acetonitrile was added to all the samples and vortexed. Samples were kept on the shaker for 5 min to ensure complete mixing of contents. The samples were centrifuged at 4000 rpm and 20 °C for 10 min, and the supernatant was transferred into auto-injector vials and loaded into the auto-sampler. A total of 5 µL was injected onto the API-4500 Q TRAP LC-MS/MS system. The samples were separated on a Phenomenex, Synergi C18 4.6 mm × 50 mm, 4 µm HPLC column using a 10 mM ammonium acetate + 0.1% Formic acid buffer as solvent A and 100% Acetonitrile as solvent B. PK parameters were quantitated using WinNonLin (Certara, Princeton, NJ, USA).

[7] = test system: collagen-induced arthritis (CIA) model; assay: CIA mouse model: clinical arthritis score and paw swelling; assay type: in vivo, C57 BL/6 mice; details: 10, 30, 50 mg/kg/day; days 1, 14, 21, 28
[8] = synovial fluid, 10 mg/kg oral gavage

Structure (SMILES): COc1cccc(C(=O)NNC(=O)C(=O)Nc2ccc(C)c(Cl)c2)c1 [CID 3117694]
- activity against CHRM1 [1]: inactive
- activity in assay for activators of T-cell receptors [2]: inactivity
- histopathological findings (in words) ([3]; 10 mg/kg/day): did not have a pronounced effect on RA markers
- histopathological findings (in words) ([3]; 30 mg/kg/day): reduced erosion but not the rest of the symptoms
- histopathological findings (in words) ([3]; 50 mg/kg/day): significant reduction in RA hallmarks in most samples; also recorded: healthy bone and cartilage similar to the healthy controls
- activity against ADRB2 [4]: inactive
- effect on caspase 8 activity [5]: does not affect
- Cmax ([6]; plasma, plasma, 10 mg/kg oral gavage, read-out: Cmax): 6640 ng/mL
- Cmax ([6]; plasma, plasma, 10 mg/kg oral gavage, read-out: Cmax, Concentration Plasma): 18.4 µM
- Cmax ([6]; plasma, plasma, 10 mg/kg oral, read-out: Cmax in plasma): 18.4 µM
- Cmax ([6]; synovial fluid, synovial fluid (SF), 10 mg/kg oral gavage, read-out: Cmax): 307 ng/mL
- Cmax ([6]; synovial fluid, synovial fluid, 10 mg/kg oral gavage, read-out: Cmax, Concentration SF): 0.849 µM
- Cmax ([6]; synovial fluid, synovial fluid, 10 mg/kg oral, read-out: Cmax in SF): 0.849 µM
- AUC(0-inf) ([6]; plasma, 10 mg/kg oral gavage): 173000 ng·h/mL
- AUC(0-t) ([6]; plasma, 10 mg/kg oral gavage): 33100 ng·h/mL
- Tmax ([6]; plasma, 10 mg/kg oral gavage): 1 h
- AUC(0-inf) [6, 8]: 1120 ng·h/mL
- AUC(0-t) [6, 8]: 1100 ng·h/mL
- Tmax [6, 8]: 1 h
- concentration at the 24 h time point ([6]; 10 mg/kg ig gavage, 24 h): below the limit of quantitation (LOQ)
- oral bioavailability (in words) ([6]; 10 mg/kg oral): orally bioavailable
- time present in the blood at a steady-state concentration ([6]; 10 mg/kg oral): at least 8 h
- paw swelling (in words) [7]: time- and dose-dependently decrease paw swelling

Source: article PMC10819767, “An ADAM10 Exosite Inhibitor Is Efficacious in an In Vivo Collagen-Induced Arthritis Model” (Pharmaceuticals, 2024)
